Results from paper PMC8291587, “Guanidine Derivatives: How Simple Structural Modification of Histamine H3R Antagonists Has Led to the Discovery of Potent Muscarinic M2R/M4R Antagonists” (ACS Chemical Neuroscience, 2021).
Where two headings read alike, the source gives them in different places.

Tests used:
[1] = target: T1, hM1R (Homo sapiens, UniProt P11229); assay: hM1R radioligand binding ([3H]NMS, CHO cell membranes)
T1 construct: host or cells: CHO cells, stably transfected; crude membranes
T1 sequence (P11229 1-460): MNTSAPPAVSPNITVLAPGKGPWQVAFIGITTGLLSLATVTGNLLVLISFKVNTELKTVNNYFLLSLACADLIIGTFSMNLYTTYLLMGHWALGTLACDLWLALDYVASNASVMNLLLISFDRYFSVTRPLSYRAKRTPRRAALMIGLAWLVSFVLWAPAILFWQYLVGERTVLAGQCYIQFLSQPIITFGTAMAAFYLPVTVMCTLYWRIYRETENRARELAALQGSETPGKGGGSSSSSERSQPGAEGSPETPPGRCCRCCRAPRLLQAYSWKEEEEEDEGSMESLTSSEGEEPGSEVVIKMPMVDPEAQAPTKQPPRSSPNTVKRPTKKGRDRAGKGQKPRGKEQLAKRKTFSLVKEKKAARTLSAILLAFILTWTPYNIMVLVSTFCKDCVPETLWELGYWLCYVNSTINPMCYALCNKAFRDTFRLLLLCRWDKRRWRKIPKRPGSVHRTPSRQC
Experimental: (§1) To clearly explain the obtained outcome, we engaged the radioligand binding experiment. The hM1–hM5 radioligand binding experiments were performed in the membrane fractions of Chinese hamster ovary cells (CHO) stably expressing human variants of muscarinic receptors. N-[^3H]Methylscopolamine was used as the radiolabeled ligand.[39] Three compounds were selected from ex vivo screening on guinea pig ileum. […] This compound is also not completely selective for the remaining muscarinic receptor subtypes with −log Ki values over 6. […] It is also a potent muscarinic M1R antagonist, and the M1R/M2R selectivity ratio is <10. It is worth noting that such nonspecific anticholinergics are often associated with neuropsychiatric and cognitive disturbances and that nonselective muscarinic M1R/M2R antagonists, such as scopolamine, can produce cognitive deficits. Further structural modifications of ADS10227 should be used to increase selectivity toward the M2R, as these may present fewer potential side effects associated with the activation of the phospholipase C signaling pathway.
The culture was derived from CHO cells stably transfected with the genes of human variants of muscarinic receptors. These were purchased from Missouri S&T cDNA Resource Center (Rolla, MO, USA). Cell cultures and crude membranes were prepared as described previously.[45] The cells were grown to confluence in 75 cm^2 flasks in Dulbecco’s modified Eagle’s medium (DMEM) supplemented with 10% fetal bovine serum, and 2 million cells were subcultured to 100 mm Petri dishes. The medium was supplemented with 5 mM butyrate for the last 24 h of cultivation to increase receptor expression. Cells were detached by mild trypsinization on day 5 after subculture. Detached cells were washed twice in 50 mL of phosphate-buffered saline and 3 min centrifugation at 250g. […]
(§2) All radioligand binding experiments were optimized and carried out according to general guidelines.[39] […] N-Methylscopolamine binding was measured directly in saturation experiments using six concentrations (30–1000 pM) of [^3H]NMS during incubation for 1 h (M2R), 3 h (M1R, M3R, and M4R), or 5 h (M5R). For calculations of the equilibrium dissociation constant (KD), concentrations of free [^3H]NMS were calculated by subtraction of bound radioactivity from total radioactivity in the sample and fitting eq 1 (Experimental Data analysis section). The binding of the tested ligands was determined in competition experiments with 100 pM [^3H]NMS. […] Nonspecific binding was determined in the presence of 1 μM unlabeled atropine. […]

[2] = target: T2, hM4R (Homo sapiens, UniProt P08173); assay: hM4R radioligand binding ([3H]NMS, CHO cell membranes)
T2 construct: host or cells: CHO cells, stably transfected; crude membranes
T2 sequence (P08173 1-479): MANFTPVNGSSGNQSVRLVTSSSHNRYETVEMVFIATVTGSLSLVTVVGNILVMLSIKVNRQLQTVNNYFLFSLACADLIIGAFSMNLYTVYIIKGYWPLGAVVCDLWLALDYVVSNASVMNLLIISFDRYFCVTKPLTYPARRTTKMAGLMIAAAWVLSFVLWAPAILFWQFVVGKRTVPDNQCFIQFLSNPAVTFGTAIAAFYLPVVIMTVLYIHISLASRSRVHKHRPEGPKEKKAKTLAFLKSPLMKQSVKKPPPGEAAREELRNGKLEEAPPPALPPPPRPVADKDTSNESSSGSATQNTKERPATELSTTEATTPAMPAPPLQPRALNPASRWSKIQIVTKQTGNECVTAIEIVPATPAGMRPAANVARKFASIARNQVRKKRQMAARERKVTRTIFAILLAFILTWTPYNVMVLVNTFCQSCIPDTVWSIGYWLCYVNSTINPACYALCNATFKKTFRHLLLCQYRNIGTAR
Experimental: as §1
The culture was derived from CHO cells stably transfected with the genes of human variants of muscarinic receptors. These were purchased from Missouri S&T cDNA Resource Center (Rolla, MO, USA). Cell cultures and crude membranes were prepared as described previously.[45] […]
as §2

[3] = read-out: hM1R -log(Ki) ± sem (converted)

| SMILES | Ki ([1]; hM1R -log(Ki) ± sem) | Ki [2] | Ki [1, 3] | Ki ([2]; [3H]NMS, CHO membranes, read-out: affinity to hM4R (Ki)) | Ki ([1]; read-out: affinity to hM1R (Ki)) | Ki ([2]; [3H]NMS, CHO membranes, read-out: hM4R -log(Ki) ± sem (converted)) |
| --- | --- | --- | --- | --- | --- | --- |
| N=C(N)N(CCCCN1CCN(CCCCCCCOc2ccccc2)CC1)Cc1ccccc1 [ADS1017] | 141 nM | 68 nM |  |  |  |  |
| N=C(N)N(CCCCN1CCN(C[C@H]2CC[C@@H](COc3ccccc3)CC2)CC1)Cc1ccccc1 [ADS10227, 1-{4-{4-{[4-(phenoxymethyl)cyclohexyl]methyl}piperazin-1-yl}but-1-yl}-1-(benzyl)guanidine] |  |  | 19.5 nM | 5.1 nM |  |  |
| [H]/N=C(/N)N(CCCCN1CCN(CC2CCC(COc3ccccc3)CC2)CC1)Cc1ccc(C(F)(F)F)cc1 (stereo not shown) [ADS10239] |  |  | 46.8 nM |  | 45 nM | 15.1 nM |
